This note sets out measurements from PMC5986654, “Combined HAT/EZH2 modulation leads to cancer-selective cell death” (Oncotarget, 2018).

The nature of data set [1]: Mouse terminal IV PK study. The format is in vivo. Conditions: iv 2 mg/kg, male CD1 mice, plasma. Here is the method:
pHarmaCology male CD1 mice in a 5 mL/kg injection volume. Terminal blood samples (> 230 μL) were taken under CO2 from pharmacokinetic analysis (mice–iV, ip pK study) groups of 3 mice at each of 8 time-points post dose (0.083, 0.25, 0.5, 1, 2, 4, 8 and 24 h) and placed into heparinized
Compound was administered both intravenously and tubes. Samples were placed on ice for no longer than 30 intraperitoneally to mice. Blood samples were collected at min before centrifugation (10,000 rpm × 3 min). Plasma 8 time points over 24 hr and plasma analysed by LC-MS/ samples (>100 μL) were collected into fresh tubes and MS to determine the concentration of compound. frozen on dry ice. Number of plasma samples = 24.
The plasma time concentration profile was Consistent IV profiles were obtained, with little calculated with the main PK parameters (Co, AUClast, variability across the time-points (the average profile is t.,VD, and CL). shown in the second spreadsheet). An average half-life of […]
For ip dosing. After formulation assessment, […]
For iv dosing. Compound was dissolved at 0.4 mg/mL. […]

In data set [2] the target is T1, CYP1A (Homo sapiens, UniProt P05177).
T1 construct: from tissue; host or cells: human liver microsomes
T1 sequence (P05177 2-516 limits assumed): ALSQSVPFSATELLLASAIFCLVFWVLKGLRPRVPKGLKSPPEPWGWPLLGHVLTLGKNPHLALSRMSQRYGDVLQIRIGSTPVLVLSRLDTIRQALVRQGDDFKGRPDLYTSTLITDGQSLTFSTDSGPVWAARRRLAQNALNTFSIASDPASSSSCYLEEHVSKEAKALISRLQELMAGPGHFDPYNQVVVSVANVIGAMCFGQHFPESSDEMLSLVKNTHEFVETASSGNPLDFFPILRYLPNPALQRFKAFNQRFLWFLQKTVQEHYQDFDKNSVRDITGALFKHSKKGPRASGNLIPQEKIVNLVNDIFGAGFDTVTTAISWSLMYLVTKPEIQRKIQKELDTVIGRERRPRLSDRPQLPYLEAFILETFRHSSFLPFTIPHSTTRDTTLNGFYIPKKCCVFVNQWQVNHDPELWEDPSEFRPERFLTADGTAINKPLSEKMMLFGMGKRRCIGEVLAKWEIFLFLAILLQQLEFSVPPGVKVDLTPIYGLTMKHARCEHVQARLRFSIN
Put plainly: Cytochrome P450 inhibition, CYP1A. To be noted: human liver microsomes, probe ethoxyresorufin. The format is in vitro ADME. Here is the method: This provided a dose of 2 mg free base material/kg when Cytochrome p450 inhibition (5 isoform iC50 administered iv in a 5 mL/kg dosing volume. determination) mouse terminal ip pK study ADME-Tox Cytochrome P450 inhibition of Compound MC2884 was given ip at a dose of 2 mg/kg MC2884 using human liver microsomes as an estimation to a group of 24 normally fed male CD1 mice in a 10 mL/ of in vitro metabolism. kg injection volume. Terminal blood samples (> 230 μL) MC2884 (0.1 μM–25 μM) was incubated with were taken under CO2 from groups of 3 mice at each of 8 human liver microsomes and NADPH in the presence time-points post dose (0.083, 0.25, 0.5, 1, 2, 4, 8 and 24 h) of a cytochrome P450 isoform-specific probe substrate. and placed into heparinized tubes. Samples were placed on ice For the CYP2C9, CYP2C19, CYP2D6 and CYP3A4 for no longer than 30 min before centrifugation (10,000 rpm × specific reactions, the metabolites were monitored by 3 min). […]
Cyp2C19 inhibition (0.1 mg/mL) and NADPH (1 mM) in the presence of the probe substrate midazolam (2.5 μM) for 5 min at Six test compound samples at concentrations 37° C. […] For the CYP1A incubations, the reactions microsomes (0.5 mg/mL) and NADPH (1 mM) in the were terminated by methanol, and the formation of the presence of the probe substrate mephenytoin (25 μM) metabolite, resorufin, was monitored by fluorescence for 60 min at 37° C. […]
On the technique in general: Liver microsomes are a subcellular fraction often used to study metabolism.

Molecules are shown by their SMILES.

In data set [1], `O=C1/C(=C/c2cccc(Br)c2)CN(Cc2ccccc2)C/C1=C\c1cccc(Br)c1` [MC2884] gave a half-life of 4.58 h. For the same compound, in data set [2], the IC50 is > 25 µM.

The term half-life denotes how long it takes for the measured level to halve. High values mean slow decline, low ones rapid decline. As a reminder, the IC50 is the point on the concentration scale where inhibition reaches its midpoint.
